Among the test systems are HCT-15; OVCAR-4; CAKI-1; COLO 205; A498; U-251; SK-OV-3; A549; SF-295; 786-0; NCI-H460; OVCAR-5; K562; NCI/ADR-RES; ACHN; SK-MEL-28; OVCAR-3; UO-31; HOP-92; KM12.
Holding throughout (assay): inhibition of tumour cell growth, NCI panel, 48 h

The source of these data is ChEMBL document CHEMBL1201862, “PubChem BioAssay data set” (2004).

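Compound exposure: 48 hours, 5 concentrations, 96-well plates. Abbreviation: GI50, concentration required for 50% inhibition of growth.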 The source made the active and inactive calls. Rule as the data show it: active = GI50 up to about 1.1 µM and inactive = higher.

Turning to `FC(F)(F)c1nc2cc(SSc3cc4nc(C(F)(F)F)[nH]c4cc3Cl)c(Cl)cc2[nH]1`, the GI50 was above 100 µM with HCT-15; 92.5 µM (inactive) in the assay on OVCAR-4; > 100 µM (inactive) with CAKI-1; 53.7 µM (inactive) in the assay with COLO 205; > 100 µM (inactive) in the assay on A498; > 100 µM (inactive) with U-251. Further, the GI50 with SK-OV-3, in the assay with A549, with SF-295, with 786-0, in the assay with NCI-H460 and with OVCAR-5 was > 100 µM (inactive) in each case. In addition, the GI50 in the assay with K562 is > 100 µM (inactive); in the assay with NCI/ADR-RES, > 100 µM (inactive); with ACHN it was > 100 µM (inactive); in the assay with SK-MEL-28, > 100 µM (inactive); in the assay on OVCAR-3, 45.2 µM (inactive).
Turning to `CCC1CCN=C(Cn2cc(C)c(=O)[nH]c2=O)N1` (stereo unspecified), the GI50 in the assay with HCT-15 is above 100 µM; in the assay with COLO 205, > 100 µM (inactive); in the assay on A498 it was > 100 µM (inactive); in the assay on U-251 it was > 100 µM (inactive); in the assay with SK-OV-3, > 100 µM (inactive); in the assay with A549, > 100 µM (inactive). Moreover, the GI50 in the assay on SF-295, in the assay on 786-0, in the assay on UO-31, in the assay with NCI-H460, in the assay on OVCAR-5 and in the assay with HOP-92 was > 100 µM (inactive) each time. For the same compound, the GI50 in the assay on NCI/ADR-RES, in the assay on ACHN and in the assay on SK-MEL-28 was > 100 µM (inactive) throughout.
In the case of `COc1ccc2c(C)c(Oc3c(Cl)c(Cl)c(O)c(C#N)c3C#N)oc2c1`, the GI50 with HCT-15 was above 100 µM; in the assay on OVCAR-4, > 100 µM (inactive); with CAKI-1, > 100 µM (inactive); with COLO 205 it was > 100 µM (inactive); with A498, > 100 µM (inactive); with U-251, > 100 µM (inactive). Further, the GI50 in the assay on SK-OV-3, with A549, with SF-295, with 786-0, in the assay with UO-31 and with NCI-H460 was > 100 µM (inactive) in each case. Besides, the GI50 in the assay on OVCAR-5, with K562, in the assay on NCI/ADR-RES, in the assay on ACHN, in the assay on KM12 and in the assay on SK-MEL-28 was > 100 µM (inactive) throughout. Moreover, the GI50 in the assay on OVCAR-3 was > 100 µM (inactive).
Take `CCOC(=O)c1c(CN2CCOCC2)n(Cc2ccccc2)c2c1cc(O)c1nc(C)c(C)nc12`: the GI50 in the assay with HCT-15 is 57 µM; in the assay on OVCAR-4, 47.8 µM (inactive); in the assay with CAKI-1, 22.1 µM (inactive); with COLO 205, 40 µM (inactive); in the assay with A498 it was 22 µM (inactive); with U-251 it was 27.4 µM (inactive). The GI50 in the assay with SK-OV-3 was 33.3 µM (inactive); in the assay on A549, 49 µM (inactive); in the assay on SF-295 it was 56.5 µM (inactive); in the assay on 786-0, 27.7 µM (inactive); with UO-31 it was 36.1 µM (inactive); in the assay with NCI-H460 it was 42 µM (inactive). The GI50 is > 100 µM (inactive) in the assay with OVCAR-5; 84.9 µM (inactive) in the assay on K562; 35.5 µM (inactive) in the assay with NCI/ADR-RES; 28.6 µM (inactive) with ACHN; > 100 µM (inactive) in the assay on KM12; > 100 µM (inactive) in the assay on SK-MEL-28. Also, the GI50 in the assay with OVCAR-3 was 52.7 µM (inactive).
As for `N#Cc1nc(-c2ccco2)oc1N`, the GI50 was above 10 µM in the assay on HCT-15; > 10 µM (inactive) with OVCAR-4; > 10 µM (inactive) in the assay on CAKI-1; > 10 µM (inactive) in the assay on COLO 205; > 10 µM (inactive) in the assay on SK-OV-3; > 10 µM (inactive) with A549. The GI50 in the assay with SF-295, with 786-0, with UO-31, with NCI-H460, in the assay on OVCAR-5 and in the assay with K562 was > 10 µM (inactive) throughout. Also, the GI50 in the assay on HOP-92, in the assay with NCI/ADR-RES, with ACHN, in the assay on KM12 and with SK-MEL-28 was > 10 µM (inactive) throughout.
On to `CCCSc1ccc2[nH]c(N3C(=O)/C(=C/c4ccco4)N=C3c3ccccc3)cc2c1`, for which the GI50 with HCT-15 was 19.8 µM; with CAKI-1 it was 34.7 µM (inactive); in the assay with COLO 205, 10.4 µM (inactive); in the assay on A498, 15.4 µM (inactive); in the assay on A549, 25.7 µM (inactive); in the assay with 786-0, 23.7 µM (inactive). For the same compound, the GI50 with UO-31 is 38.3 µM (inactive); in the assay with NCI-H460 it was 18.3 µM (inactive); in the assay with OVCAR-5 it was > 50 µM (inactive); in the assay on K562, 15.6 µM (inactive); in the assay with HOP-92, > 50 µM (inactive); with NCI/ADR-RES, 19.6 µM (inactive). The GI50 is 38.8 µM (inactive) in the assay on ACHN, 17.7 µM (inactive) with KM12, 33.7 µM (inactive) in the assay on SK-MEL-28 and 21.6 µM (inactive) in the assay on OVCAR-3.
As to `Oc1ccc(-c2nc(-c3ccc4ccccc4n3)c(-c3ccc(F)cc3)[nH]2)cc1`, the GI50 was 10.7 µM in the assay on HCT-15; 11.2 µM (inactive) in the assay on OVCAR-4; 13.6 µM (inactive) with CAKI-1; 14.6 µM (inactive) in the assay on COLO 205; 10.6 µM (inactive) with U-251; 15.3 µM (inactive) in the assay with SK-OV-3. The GI50 with A549 was 11.6 µM (inactive); in the assay with SF-295, 10.4 µM (inactive); in the assay on 786-0 it was 15.2 µM (inactive); in the assay on UO-31, 11.6 µM (inactive); in the assay on NCI-H460, 5.45 µM (inactive); in the assay with OVCAR-5, 15.9 µM (inactive). Besides, the GI50 was 14.5 µM (inactive) in the assay on K562; 4.74 µM (inactive) in the assay on NCI/ADR-RES; 12.3 µM (inactive) in the assay on ACHN; 5.26 µM (inactive) in the assay on KM12; 17.4 µM (inactive) in the assay on SK-MEL-28; 6.19 µM (inactive) with OVCAR-3.
For `O=S(=O)(O)c1cc(/N=N/c2c(O)ccc3ccccc23)ccc1/C=C/c1ccc(/N=N/c2c(O)ccc3ccccc23)cc1S(=O)(=O)O`, the GI50 in the assay with HCT-15 is above 100 µM; in the assay with OVCAR-4 it was > 100 µM (inactive); with CAKI-1 it was > 100 µM (inactive); in the assay on COLO 205, > 100 µM (inactive); in the assay on U-251, > 100 µM (inactive); in the assay with SK-OV-3 it was > 100 µM (inactive). For the same compound, the GI50 in the assay on A549, in the assay on SF-295, in the assay on 786-0, in the assay on UO-31, in the assay with OVCAR-5 and in the assay on K562 was > 100 µM (inactive) each time. In addition, the GI50 in the assay with HOP-92, with NCI/ADR-RES, in the assay with ACHN, with KM12, in the assay on SK-MEL-28 and in the assay with OVCAR-3 was > 100 µM (inactive) in each case.
As for `CCCCc1ccc(-n2sc3ncc([N+](=O)[O-])cc3c2=O)cc1`, the GI50 with HCT-15 was 15.1 µM; in the assay with OVCAR-4, 6.58 µM (inactive); in the assay on CAKI-1, 13.4 µM (inactive); in the assay with COLO 205, 18.4 µM (inactive); with U-251 it was 12.6 µM (inactive); in the assay with SK-OV-3, > 100 µM (inactive). Besides, the GI50 is 12.9 µM (inactive) with A549; 10.5 µM (inactive) in the assay with SF-295; 15 µM (inactive) with 786-0; 12.5 µM (inactive) in the assay with UO-31; 12.7 µM (inactive) with NCI-H460; 13.4 µM (inactive) in the assay with OVCAR-5. Also, the GI50 in the assay with NCI/ADR-RES is 11.5 µM (inactive); with ACHN, 14.8 µM (inactive); with KM12, 12 µM (inactive); in the assay with SK-MEL-28 it was 14.1 µM (inactive); in the assay with OVCAR-3, 5.05 µM (inactive).
In the case of `CC(=O)N1C(Nc2cccc3nc(C)ccc23)CCN1c1ccccc1` (stereo unspecified), the GI50 was 7.98 µM with HCT-15; > 10 µM (inactive) in the assay on OVCAR-4; > 10 µM (inactive) in the assay with CAKI-1; > 10 µM (inactive) in the assay on COLO 205; > 10 µM (inactive) with SK-OV-3; > 10 µM (inactive) in the assay with A549. Further, the GI50 in the assay on SF-295, in the assay with 786-0, in the assay on UO-31, in the assay on NCI-H460, with OVCAR-5 and in the assay with K562 was > 10 µM (inactive) throughout. Besides, the GI50 in the assay with NCI/ADR-RES, with ACHN, in the assay on SK-MEL-28 and with OVCAR-3 was > 10 µM (inactive) in each case.
Turning to `O=C(Nc1sccc1S(=O)(=O)c1ccccc1)c1cccnc1`, the GI50 in the assay with HCT-15 was 5.18 µM; in the assay on OVCAR-4 it was > 100 µM (inactive); in the assay on CAKI-1 it was > 32.7 µM (inactive); in the assay on COLO 205, 3.88 µM (inactive); with U-251, 2.97 µM (inactive); in the assay with SK-OV-3 it was 11.7 µM (inactive). Also, the GI50 in the assay on A549 is 11.5 µM (inactive); in the assay with SF-295, 8.63 µM (inactive); in the assay with 786-0, 12 µM (inactive); in the assay on UO-31, > 58.1 µM (inactive); with NCI-H460, 8.34 µM (inactive); in the assay on OVCAR-5 it was > 70.6 µM (inactive). Further, the GI50 with K562 was 4.39 µM (inactive); with HOP-92, > 42.4 µM (inactive); in the assay on NCI/ADR-RES, 3.96 µM (inactive); in the assay on ACHN it was 64.9 µM (inactive); in the assay with KM12, 4.62 µM (inactive); in the assay on SK-MEL-28 it was 38.5 µM (inactive). In addition, in the assay on OVCAR-3, the GI50 is 11.6 µM (inactive).
